The record followed here is ChEMBL document CHEMBL1121781, “Potential antitumor agents. 34. Quantitative relationships between DNA binding and molecular structure for 9-anilinoacridines substituted in the anilino ring” (J Med Chem, 1981).

The source made the active and inactive calls. No cut-off for these calls is given here.

For data set [1], the species on record is Mus musculus.
Description: Maximum percent increase in life span of mice
In data set [2] the test system is Nucleic Acid.
Description: Association constant for binding to poly [d(A-T)]
Data set [3] relates to Nucleic Acid. The source holds these as a separate data set.
Description: Association constant for binding to poly [d(G-C)]
Data set [4] concerns Calf thymus DNA. Conditions: Bos taurus.
Description: Inhibitory concentration against ethidium binding to DNA
A short description of data set [5]: physchem.
Description: Ionisation constant (pKa)

In the case of `CNS(=O)(=O)c1ccc(Nc2c3ccccc3nc3ccccc23)cc1`, the ILS entry in data set [1] was “inactive”. In addition, the Log K in data set [2] was 5.82; in data set [3], 5.85. The molecule further had a C50 in data set [4] of 16 µM. This molecule also gave a pKa in data set [5] of 6.02.

Consider `CNc1ccc(Nc2c3ccccc3nc3ccccc23)cc1`, for which the Log K was 6.55 in data set [2] and 6.54 in data set [3]. For the same molecule, in data set [4], the C50 stood at 1.2 µM. For the same molecule, in data set [5], the pKa was 8.42.

As for `CN(c1ccc(Nc2c3ccccc3nc3ccccc23)cc1)S(C)(=O)=O`, the Log K in data set [2] was 5.89; in data set [3], 6. Besides, in data set [4], the C50 stood at 9.9 µM.

For `NS(=O)(=O)c1ccc(Nc2c3ccccc3nc3ccccc23)cc1`, in data set [1], the ILS result is “inactive”. In addition, the Log K in data set [2] was determined as 5.96; in data set [3] it was 5.92. In addition, the C50 in data set [4] came out at 14 µM.

Take `CC(=O)Nc1ccccc1Nc1c2ccccc2nc2ccccc12`: the ILS result in data set [1] is “inactive”. The results for the Log K in data set [2] and in data set [3] were 5.84 and 5.46, respectively. The C50 in data set [4] turned out to be 42 µM. In addition, the pKa in data set [5] is 7.24.

For the molecule `COc1ccc(Nc2c3ccccc3nc3ccccc23)cc1`, in data set [1], the ILS entry was “inactive”. Besides, the Log K in data set [2] is 6.12; in data set [3] it was 6.08. Moreover, the C50 in data set [4] is 7.4 µM. Besides, in data set [5], the pKa amounted to 7.94.

For the molecule `COc1cccc(Nc2c3ccccc3nc3ccccc23)c1`, the ILS result in data set [1] was “inactive”. Further, the Log K amounted to 5.86 in data set [2] and 5.91 in data set [3]. This molecule gave a C50 in data set [4] of 14 µM. The same molecule returned a pKa in data set [5] of 7.21.

Turning to `O=[N+]([O-])c1ccc(Nc2c3ccccc3nc3ccccc23)cc1`, the ILS result in data set [1] is “inactive”. Further, the figures for the Log K in data set [2] and in data set [3] were 5.48 and 5.69, respectively. In addition, in data set [4], the C50 was 19 µM.

With `NC(=O)c1ccccc1Nc1c2ccccc2nc2ccccc12`, the ILS entry in data set [1] was “inactive”. Also, the Log K amounted to 5.37 in data set [2] and 5.43 in data set [3]. The molecule further had a C50 in data set [4] of 38 µM.

As for `Ic1ccc(Nc2c3ccccc3nc3ccccc23)cc1`, in data set [1], the ILS entry was “inactive”. Moreover, the values for the Log K in data set [2] and in data set [3] were 6.19 and 6.13, respectively. In data set [4], this molecule came in with a C50 of 8.2 µM. The molecule further showed a pKa in data set [5] of 6.9.

As for `O=C(Nc1ccccc1)Nc1ccc(Nc2c3ccccc3nc3ccccc23)cc1`, the Log K in data set [2] was found to be 6.37; in data set [3] it was 6.3. Moreover, the C50 in data set [4] stood at 3.8 µM. Also, in data set [5], the pKa came out at 7.67.

Regarding `CS(=O)(=O)Nc1cccc(Nc2c3ccccc3nc3ccccc23)c1`, in data set [3], the Log K turned out to be 5.86. The C50 in data set [4] was determined as 15 µM.

`Fc1ccc(Nc2c3ccccc3nc3ccccc23)cc1`: in data set [1], the ILS result is “inactive”. Besides, the Log K in data set [2] came to 5.9; in data set [3] it was 5.85. Besides, in data set [4], the C50 came out at 16 µM. The molecule further showed a pKa in data set [5] of 7.5.

For `CN(C)c1ccc(Nc2c3ccccc3nc3ccccc23)cc1`, the results for the Log K in data set [2] and in data set [3] were 6.51 and 6.29, respectively. The molecule further returned a C50 in data set [4] of 2 µM. This molecule registered a pKa in data set [5] of 8.46.

In the case of `Oc1ccccc1Nc1c2ccccc2nc2ccccc12`, the ILS entry in data set [1] was “inactive”. In addition, the results for the Log K in data set [2] and in data set [3] were 5.36 and 5.42, respectively. Moreover, the C50 in data set [4] is 39 µM. For the same molecule, the pKa in data set [5] was 7.8.

`Cc1ccc(Nc2c3ccccc3nc3ccccc23)cc1`: the Log K in data set [2] and in data set [3] was 5.99 in each case. In data set [4], this molecule came in with a C50 of 10 µM. Further, in data set [5], the pKa is 7.72.

For the molecule `c1ccc(Nc2c3ccccc3nc3ccccc23)nc1`, the ILS result in data set [1] is “inactive”. Moreover, the Log K worked out at 5.6 in data set [2] and 5.43 in data set [3]. Besides, the C50 in data set [4] amounted to 42 µM. The pKa in data set [5] was 6.32.

Consider `CCCCNc1ccc(Nc2c3ccccc3nc3ccccc23)cc1`, for which the ILS result in data set [1] is “inactive”. The Log K in data set [2] was found to be 6.45; in data set [3], 6.39. For the same molecule, in data set [4], the C50 turned out to be 1.6 µM. This molecule also came in with a pKa in data set [5] of 8.24.

Consider `CNc1cccc(Nc2c3ccccc3nc3ccccc23)c1`, for which the ILS result in data set [1] is “inactive”. Besides, the Log K in data set [2] was 6.11; in data set [3] it was 6.01. In data set [4], this molecule returned a C50 of 7 µM. The same molecule yielded a pKa in data set [5] of 7.61.

Turning to `Ic1ccccc1Nc1c2ccccc2nc2ccccc12`, in data set [1], the ILS result is “inactive”. Moreover, the Log K in data set [2] stood at 5.33; in data set [3], 5.27. Besides, in data set [4], the C50 was determined as 126 µM. The molecule further had a pKa in data set [5] of 6.47.

Molecule `CC(=O)Nc1ccc(Nc2c3ccccc3nc3ccccc23)cc1` came in with a C50 in data set [4] of 4.7 µM. The pKa in data set [5] is 7.51.

With `O=S(=O)(Nc1ccc(Nc2c3ccccc3nc3ccccc23)cc1)c1ccccc1`, the Log K in data set [2] is 6.2; in data set [3], 6.23. In data set [4], the C50 is 5.7 µM. The same molecule registered a pKa in data set [5] of 7.09.

Consider `CCc1ccccc1Nc1c2ccccc2nc2ccccc12`, for which the ILS result in data set [1] is “inactive”. Besides, the Log K in data set [2] is 5.18; in data set [3] it was 5.15. The molecule further displayed a C50 in data set [4] of 83 µM. In addition, the pKa in data set [5] was determined as 7.68.

`COc1ccccc1Nc1c2ccccc2nc2ccccc12`: the Log K turned out to be 5.5 in data set [2] and 5.47 in data set [3]. Besides, the C50 in data set [4] was 34 µM. For the same molecule, in data set [5], the pKa stood at 7.74.

Consider `CCCNc1ccc(Nc2c3ccccc3nc3ccccc23)cc1`, for which the ILS result in data set [1] is “inactive”. Also, the Log K turned out to be 6.35 in data set [2] and 6.28 in data set [3]. This molecule also came in with a C50 in data set [4] of 2 µM. Further, the pKa in data set [5] was 8.25.

In the case of `Nc1ccc(Nc2c3ccccc3nc3ccccc23)cc1`, the results for the Log K in data set [2] and in data set [3] were 6.31 and 6.23, respectively. Also, in data set [4], the C50 came to 2.3 µM. The pKa in data set [5] came out at 8.36.

`Cc1cccc(Nc2c3ccccc3nc3ccccc23)c1`: the ILS entry in data set [1] was “inactive”. For the same molecule, the Log K in data set [2] was found to be 6.09; in data set [3] it was 5.9. Moreover, in data set [4], the C50 came out at 15 µM. This molecule also had a pKa in data set [5] of 7.52.

Consider `N#Cc1ccc(Nc2c3ccccc3nc3ccccc23)cc1`, for which the ILS result in data set [1] is “inactive”. The values for the Log K in data set [2] and in data set [3] were 5.7 and 5.86, respectively. The C50 in data set [4] was determined as 15 µM. Also, the pKa in data set [5] was determined as 5.93.

Take `Clc1ccc(Nc2c3ccccc3nc3ccccc23)cc1`: the ILS result in data set [1] was “inactive”. The Log K is 5.99 in data set [2] and 5.91 in data set [3]. Moreover, in data set [4], the C50 was 14 µM. Besides, the pKa in data set [5] was found to be 7.06.

On to `Clc1cccc(Nc2c3ccccc3nc3ccccc23)c1`, for which, in data set [1], the ILS entry was “inactive”. The Log K in data set [2] and in data set [3] was 6.02 in each case. This molecule also yielded a C50 in data set [4] of 11 µM. This molecule also returned a pKa in data set [5] of 6.76.

With `COC(=O)Nc1ccc(Nc2c3ccccc3nc3ccccc23)cc1`, the Log K in data set [3] was 6.23. Moreover, the C50 in data set [4] stood at 5.3 µM. In addition, in data set [5], the pKa was found to be 7.64.

In the case of `Oc1ccc(Nc2c3ccccc3nc3ccccc23)cc1`, the Log K in data set [2] amounted to 6.28; in data set [3] it was 6.21. In data set [4], the C50 amounted to 5.1 µM. The pKa in data set [5] turned out to be 7.91.

For `O=[N+]([O-])c1cccc(Nc2c3ccccc3nc3ccccc23)c1`, the ILS result in data set [1] was “inactive”. Further, the Log K turned out to be 5.56 in data set [2] and 5.62 in data set [3]. The molecule further gave a C50 in data set [4] of 27 µM. Further, in data set [5], the pKa is 6.26.

For `Fc1ccccc1Nc1c2ccccc2nc2ccccc12`, in data set [1], the ILS entry is “inactive”. In addition, the Log K was 5.59 in data set [2] and 5.65 in data set [3]. Further, the C50 in data set [4] amounted to 27 µM. Besides, the pKa in data set [5] amounted to 6.84.

As to `COC(=O)c1ccccc1Nc1c2ccccc2nc2ccccc12`, in data set [1], the ILS entry was “inactive”. In addition, the Log K in data set [2] was 5.47; in data set [3], 5.41. The C50 in data set [4] stood at 40 µM. In data set [5], the pKa came out at 6.3.

Regarding `COC(=O)c1ccc(Nc2c3ccccc3nc3ccccc23)cc1`, the Log K in data set [2] was determined as 5.88; in data set [3], 5.86. Further, the C50 in data set [4] is 15 µM.

As for `O=C(Nc1ccc(Nc2c3ccccc3nc3ccccc23)cc1)c1ccccc1`, the Log K in data set [2] was determined as 6.2; in data set [3] it was 6.14. This molecule displayed a C50 in data set [4] of 5.4 µM. For the same molecule, in data set [5], the pKa was determined as 7.39.

On to `CS(=O)(=O)Nc1ccc(Nc2c3ccccc3nc3ccccc23)cc1`, for which the C50 in data set [4] is 8.9 µM.

Regarding `NS(=O)(=O)c1ccccc1Nc1c2ccccc2nc2ccccc12`, in data set [1], the ILS entry was “inactive”. Besides, the Log K stood at 5.67 in data set [2] and 5.77 in data set [3]. The same molecule showed a C50 in data set [4] of 18 µM.

With `CCNc1ccc(Nc2c3ccccc3nc3ccccc23)cc1`, the results for the Log K in data set [2] and in data set [3] were 6.44 and 6.36, respectively. Moreover, the C50 in data set [4] turned out to be 1.7 µM. Also, the pKa in data set [5] amounted to 8.3.

`CNC(=O)Nc1ccc(Nc2c3ccccc3nc3ccccc23)cc1` came in with a C50 in data set [4] of 4.1 µM. The molecule further yielded a pKa in data set [5] of 7.77.

Regarding `NC(=O)c1ccc(Nc2c3ccccc3nc3ccccc23)cc1`, the ILS entry in data set [1] is “inactive”. The Log K in data set [2] is 5.83; in data set [3] it was 5.77. This molecule also showed a C50 in data set [4] of 18 µM.

With `O=[N+]([O-])c1ccccc1Nc1c2ccccc2nc2ccccc12`, the ILS result in data set [1] is “inactive”. Moreover, the Log K in data set [2] amounted to 5.36; in data set [3] it was 5.49. The molecule further came in with a C50 in data set [4] of 36 µM.

As for `CC(=O)Nc1cccc(Nc2c3ccccc3nc3ccccc23)c1`, the values for the Log K in data set [2] and in data set [3] were 5.9 and 5.96, respectively. Further, the C50 in data set [4] worked out at 13 µM. Further, the pKa in data set [5] is 7.16.

`Nc1cccc(Nc2c3ccccc3nc3ccccc23)c1`: the Log K in data set [2] amounted to 6.11; in data set [3], 6.01. The C50 in data set [4] worked out at 8.6 µM. This molecule gave a pKa in data set [5] of 7.58.

As to `Nc1ccc(S(=O)(=O)Nc2ccc(Nc3c4ccccc4nc4ccccc34)cc2)cc1`, the figures for the Log K in data set [2] and in data set [3] were 6.3 and 6.26, respectively. Further, in data set [4], the C50 was found to be 4.4 µM. Further, in data set [5], the pKa was found to be 7.15.

Broadly, the pKa is the negative logarithm of the acid dissociation constant. A lower pKa goes with a group that gives up its proton readily.
